From patent US6733982B1, “Method for screening compounds for alpha1B adrenergic receptor antagonist and analgesic activity” (Syntex (U.S.A.) LLC, priority 1999, dated 2004)

Key:
[1] = system: neuropathic rats (chronic constriction injury); experiment: Cold allodynia response (cold bath assay) in neuropathic (chronic constriction injury) rats; type: in vivo, rat
Description: This experiment was conducted to evaluate the effects of 4-(2-benzofuran-7-yl-5-oxo-oxazol-4-ylidenemethyl)-N-phenyl-piperazine-1-carboxamidine hydrochloride, and similar or related compounds, on the cold allodynia response in neuropathic rats. The test apparatus and methods of behavioral testing is described in Gogas et al. (1997) Analgesia 3:111-118.
Male Sprague-Dawley rats (Harlan), 160-200 g, were surgically prepared to have a chronic constriction injury (CCl) as described above 6 days prior to testing. Rats were selected for the study according to the following criteria: 1) the average of two trials was less than or equal to 13 sec; and 2) there was consistency across the two trial scores. Animals were screened for hypersensitivy to cold on post-surgery days 4 through 10, and selected for inclusion in dose-response studies based on the criteria described above. The pre-dose screening values were used as the animals' baseline cold allodynia scores.
Selected rats were tested twice in the cold bath assay described above for a pre-dose baseline and randomly assigned to treatment groups and dosed at 0 (vehicle, 10 ml/kg, 0.5% CMC, 30, 100 or 300 μg/kg, i.p. After 1 hour and 3 hours post-dosing, rats were tested in the cold bath assay. For each rat, the assay was run once at 1 and 3 hours post-dose. The time to raise the rear leg was recorded in each trial. The maximal observing time in each trial was 20 seconds.
(§1) Male Sprague-Dawley rats (Harlan), 160-270 g, were surgically prepared to have a chronic constriction injury (CCl) as described above 5 days prior to testing. Rats were selected and tested as described in Example 3. Selected rats were dosed at 0 (vehicle, 10 mL/kg, deionized water), 30 or 300 μg/kg, i.p. After 20 min and 40 minutes post-dosing, rats were tested in the cold bath assay.
as §1, with “170-270” for “160-270”, “14” for “5”
(§2) Heat and cold allodynia responses can be evaluated as described below in rats having a chronic constriction injury (CCl). A unilateral mononeuropathy is produced in rats using the chronic constriction injury model described in Bennett et al. (1988) Pain 33:87-107.
(§3) CCl is produced in anesthetized rats as follows. The lateral aspect of each rat's hind limb is shaved and scrubbed with Nolvasan. Using aseptic techniques, an incision is made on the lateral aspect of the hind limb at the mid-thigh level. The biceps femoris is bluntly dissected to expose the sciatic nerve. On the right hind limb of each rat, four loosely tied ligatures (for example, Chromic gut 4.0; Ethicon, Johnson and Johnson, Somerville, N.J.) are made around the sciatic nerve approximately 1-2 mm apart. On the left side of each rat, an identical dissection is performed except that the sciatic nerve is not ligated (sham). The muscle is closed with a continuous suture pattern with, e.g., 4-0 Vicryl (Johnson and Johnson, Somerville, N.J.) and the overlying skin is closed with wound clips. The rats are ear-tagged for identification purposes and returned to animal housing.

[2] = target: T1, alpha1B adrenergic receptor (Homo sapiens, UniProt P35368); experiment: [3H]prazosin radioligand binding on membranes of alpha1 adrenergic receptor transfected CHO-K1 cells; conditions: methods of Example 1: alpha1A, alpha1B and alpha1D transfected CHO-K1 cells
T1 construct: expressed in transfected cells; host or cells: CHO-K1
T1 sequence (P35368 1-520): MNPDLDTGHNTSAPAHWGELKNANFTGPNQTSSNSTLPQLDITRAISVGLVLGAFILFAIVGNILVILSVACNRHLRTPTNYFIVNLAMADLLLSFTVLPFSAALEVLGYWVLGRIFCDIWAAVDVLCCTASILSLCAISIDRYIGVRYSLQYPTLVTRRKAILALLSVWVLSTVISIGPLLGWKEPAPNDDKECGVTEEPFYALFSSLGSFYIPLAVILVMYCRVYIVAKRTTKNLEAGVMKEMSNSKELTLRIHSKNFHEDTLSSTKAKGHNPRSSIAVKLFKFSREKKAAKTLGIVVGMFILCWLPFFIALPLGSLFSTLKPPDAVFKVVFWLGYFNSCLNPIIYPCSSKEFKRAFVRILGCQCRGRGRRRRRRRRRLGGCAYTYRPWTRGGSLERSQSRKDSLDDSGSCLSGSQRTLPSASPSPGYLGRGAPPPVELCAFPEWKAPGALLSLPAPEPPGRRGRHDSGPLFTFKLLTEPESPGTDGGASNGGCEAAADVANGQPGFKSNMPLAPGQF
Description: Alpha1A, alpha1B and Alpha1D adrenergic receptor transfected CHO-K1 cells, prepared using the methods described in Chang et al. (1998) FEBS Lett. 422:279-283, were grown to confluence in T-162 tissue culture flasks in Ham's F-12 culture medium supplemented with 10% fetal bovine serum, geneticin (150 μg/ml) and streptomycin: penicillin (30 μg/ml:30 μg/ml) at 37° C. in 7% CO2. Cells were harvested by incubating with phosphate-buffered saline (PBS) containing 30 μM EDTA for 5-10 min at 37° C. Cells were pelleted by centrifuging at 500×g for 5 min, the pelleted cells were homogenized (Polytron homogenizer) in 10 vols (w/v) of 50 mM Tris, 1 mM EDTA, (homogenisation buffer, pH 7.4 at 4° C.). The homogenate was centrifuged at 45,000×g for 20 min. […]
The membranes were thawed at room temperature and diluted in assay buffer (50 mM Tris, pH 7.4) at 37° C. and homogenized using the Polytron tissue disrupter. […] Scintillation cocktail was added to the filter plates and bound radioligand determined by liquid scintillation spectrophotometry.
For each experiment, total binding (in the absence of any test or reference compounds) and non specific binding (10 μM phentolamine) were determined. […] If the radioligand KD was known, the inhibition dissociation constant (Ki) of each ligand was determined according to the method of Cheng et al. (1973) Biochem. Pharmacol. 22:3099-3108).

[3] = system: neuropathic rats (chronic constriction injury); experiment: Pain response to radiant heat in neuropathic (chronic constriction injury) rats; type: in vivo, rat; conditions: CCI rats
Description: Male Sprague-Dawley rats (Harlan), 240-300 g, were surgically prepared to have a chronic constriction injury (CCl) as described above 13-15 days prior to testing. Rats were selected for the study according to the following criteria: ligated leg (LL)latency−4 to 14 seconds; sham leg (LS) latency−6 to 18 seconds; difference (LDiff=LL−LS)−greater than 1.5 seconds. Selected rats were randomly assigned to treatment groups and dosed at 0 (vehicle, 10 ml/kg, 0.5% CMC, 30, 60, 100 or 300 μg/kg, i.p. After 45 minutes post-dosing, rats were placed under inverted plastic cages on an elevated glass platform. Following 15 minutes of acclimatization, a radiant heat source, e.g., light was placed below the glass and illuminated in order for the glass to reach a temperature of 80-82° F. For each rat, four trials of each of the following were performed: shone light on the left hind paw (sham) and recorded the latency when the paw was withdrawn; shone light on the right hind paw (ligated) and recorded the latency when the paw was withdrawn. Five minute intervals were allowed between trials. Hind paws were examined for redness and blistering after each test.
Male Sprague-Dawley rats (Harlan), 240-300 g, were surgically prepared to have a CCl as described above 19-21 days prior to testing. Rats were selected for the study according to the following described in Example 2. Selected rats were randomly assigned to treatment groups and dosed with 4-(2-naphthalen-1-yl-5-oxo-oxazol-4-ylidenemethyl)-N-phenyl-piperazine-1-carboxamidine at 0 (vehicle, 10 mL/kg deionized water, 30, 60, 100, 300 or 1000 μg/kg, i.p. After 1 hour post-dosing, rats were tested as described in Example 2.
as §2, §3

[4] = 300 μg/kg i.p., 40 min post-dose
[5] = 60 μg/kg i.p., about 1 hour post-dosing
[6] = 100 μg/kg i.p., about 1 hour post-dosing
[7] = 300 μg/kg i.p., about 1 hour post-dosing
[8] = 100 μg/kg i.p., 1 hour post-dose, p<0.01
[9] = 300 μg/kg i.p., 1 hour post-dose, p<0.01
[10] = 300 μg/kg i.p., 3 hours post-dose, p<0.05

Structure (SMILES)	cold allodynia: change in latency from pre-dose compared to vehicle group [1, 4]	cold allodynia: latency times compared to vehicle control [1, 4]	identification as selective alpha1B adrenergic receptor antagonist [2]	effect in the radiant heat assay (paw withdrawal latency) [3, 5]	effect in the radiant heat assay (paw withdrawal latency) [3, 6]	effect in the radiant heat assay (paw withdrawal latency) [3, 7]	cold allodynia: actual latency times compared to vehicle [1, 8]	cold allodynia: changes from pre-dose compared to vehicle [1, 8]	cold allodynia: actual latency times compared to vehicle [1, 9]	cold allodynia: changes from pre-dose compared to vehicle [1, 9]	cold allodynia: actual latency times compared to vehicle [1, 10]	cold allodynia: changes from pre-dose compared to vehicle [1, 10]	effect in the radiant heat assay (paw withdrawal latency) ([3]; 1000 μg/kg i.p., 1 hour post-dosing)	cold allodynia: change in latency from pre-dose compared to vehicle group ([1]; 30 μg/kg i.p., 20 min post-dose)	cold allodynia: change in latency from pre-dose compared to vehicle group ([1]; 300 μg/kg i.p., 20 min post-dose)	cold allodynia: latency times compared to pre-dose [1, 4]	cold allodynia: latency times compared to pre-dose ([1]; 20 min post-dose, i.p. (doses tested 30 or 300 μg/kg; dose not given))
Cc1c[nH]c(=O)n(CCCN2CCN(c3ccccc3OCC(F)(F)F)CC2)c1=O [3-(3-{4-[2-(2,2,2-trifluoroethoxy)phenyl]-piperazin-1-yl}propyl)-5-methyl-2,4(1H,3H)-pyrimidinedione, reference compound]	significant changes	significant increase in latency times	–	–	–	–	–	–	–	–	–	–	–	–	–	–	–
Cl.N=C(Nc1ccccc1)N1CCN(C=C2N=C(c3cccc4ccoc34)OC2=O)CC1 [4-(2-benzofuran-7-yl-5-oxo-oxazol-4-ylidenemethyl)-N-phenyl-piperazine-1-carboxamidine hydrochloride]	–	–	identified as selective alpha1B adrenergic receptor antagonists	significant effect	significant effect	significant effect	significantly higher than vehicle	significantly higher than vehicle	significantly higher than vehicle	significantly higher than vehicle	significantly higher than vehicle	significantly higher than vehicle	–	–	–	–	–
N=C(Nc1ccccc1)N1CCN(C=C2N=C(c3cccc4ccccc34)OC2=O)CC1 [4-(2-naphthalen-1-yl-5-oxo-oxazol-4-ylidenemethyl)-N-phenyl-piperazine-1-carboxamidine]	significant change from pre-dose	–	identified as a selective alpha1B adrenergic receptor antagonist	significant effect	significant effect	significant effect	–	–	–	–	–	–	significant effect	significant increase in latency from pre-dose	significant increase in latency from pre-dose	significant increase in latency	significant change in latency times
